Measured values taken from US8383622B2 (priority 2007, dated 2013).

Experiment: log k′ (degree of lipophilic character) by gradient HPLC
Format: physicochemical
Conditions: XTerra MS C18 column; acetonitrile/pH6.8 buffer gradient 5:95-95:5/20 min
Description: As to each compound, the measurement results of NMR or log k′ were disclosed.
log k′ is a value which means degree of the lipophilic character, and is calculated by the following formula. log k′=log(tR−t0)/t0 • tR: retention time of compound under gradient condition • t0: retention time of standard material not retained in column
XTerra MS C18 5 μm, 2.1×100 mm column (made by Waters) was used for measurement. The elution was a straight line inclination of acetonitrile/pH6.8 buffer (5:95˜95:5/20 min) at flow velocity 0.25 mL/min.

`CC(C)COc1c(C(=O)NC2CCCCCCCCC2)cnn1/C=C/C(C)(C)C(N)=O` [Compound I-2] and `COC(=O)NC(C)(C)/C=C/n1ncc(C(=O)NC2CCCCCCCCC2)c1OCC(C)C` [Compound I-3] are within 0.2 log units of each other in “log k′” value: 1.014 for the first, 1.066 for the second.

`CC(=O)NC(C)(C)/C=C/n1ncc(C(=O)N[C@H]2C3CCCC2C[C@H](C(N)=O)C3)c1OCC(C)C` [Compound I-5] and `CC(=O)NC(C)(C)/C=C/n1ncc(C(=O)N[C@H]2C3CCCC2C[C@@H](C(N)=O)C3)c1OCC(C)C` [Compound I-42] are within 0.2 log units of each other in “log k′” value: 0.795 for the first, 0.805 for the second.

`Cc1nnc(C(C)(C)/C=C/n2ncc(C(=O)N[C@H]3C4CC5CC3C[C@](OC(N)=O)(C5)C4)c2OCC(C)C)o1` [Compound I-8] and `CC(C)COc1c(C(=O)NC2C3CC4CC2CC(OC(N)=O)(C4)C3)cnn1/C=C/C(C)(C)CO` (stereo not shown) [Compound I-73] are within 0.2 log units of each other in “log k′” value: 0.883 for the first, 0.876 for the second.

`CC(=O)NC(C)(C)/C=C/n1ncc(C(=O)N[C@H]2C3CC4CC2C[C@](OC(N)=O)(C4)C3)c1OCC(C)C` [Compound I-10] and `CCC(=O)NC(C)(C)/C=C/n1ncc(C(=O)N[C@H]2C3CC4CC2C[C@](OC(N)=O)(C4)C3)c1OCC(C)C` [Compound I-24] are within 0.2 log units of each other in “log k′” value: 0.798 for the first, 0.876 for the second.

`CC(=O)NC(C)(C)CCn1ncc(C(=O)N[C@H]2C3CC4CC2C[C@](OC(N)=O)(C4)C3)c1OCC(C)C` [Compound I-11] and `CC(=O)NC(C)(C)CCn1ncc(C(=O)N[C@H]2C3CC4CC2C[C@](COC(N)=O)(C4)C3)c1OCC(C)C` [Compound I-57] are within 0.2 log units of each other in “log k′” value: 0.831 for the first, 0.852 for the second.

`CC(=O)NC(C)(C)/C=C/n1ncc(C(=O)NC23CCC(C(N)=O)(CC2)C3)c1OCC(C)C` [Compound I-12] and `COC(=O)NC(C)(C)/C=C/n1ncc(C(=O)NC23CCC(C(N)=O)(CC2)C3)c1OCC(C)C` [Compound I-13] are within 0.2 log units of each other in “log k′” value: 0.763 for the first, 0.822 for the second.

`C=CCC1C2CCC(C2)C1NC(=O)c1cnn(/C=C/C(C)(C)NC(C)=O)c1OCC(C)C` (stereo not shown) [Compound I-14] and `CC(=O)NC(C)(C)/C=C/n1ncc(C(=O)N[C@H]2C3CCCC2C[C@@H](CO)C3)c1OCC(C)C` [Compound I-43] are within 0.2 log units of each other in “log k′” value: 0.981 for the first, 0.851 for the second.

`CC(=O)NC(C)(C)CCn1ncc(C(=O)N[C@H]2C3CC4CC2C[C@](CO)(C4)C3)c1OCC(C)C` [Compound I-16] and `COC(=O)NC(C)(C)CCn1ncc(C(=O)N[C@H]2C3CC4CC2C[C@](COC(N)=O)(C4)C3)c1OCC(C)C` [Compound I-58] are within 0.2 log units of each other in “log k′” value: 0.842 for the first, 0.899 for the second.

`COC(=O)NC(C)(C)/C=C/n1ncc(C(=O)N[C@H]2C3CC4CC2C[C@](COC(N)=O)(C4)C3)c1OCC(C)C` [Compound I-17] and `COC(=O)NC(C)(C)/C=C/n1ncc(C(=O)N[C@H]2C3CC4CC2C[C@](CO)(C4)C3)c1OCC(C)C` [Compound I-19] are within 0.2 log units of each other in “log k′” value: 0.916 for the first, 0.907 for the second.

`CC(C)COc1c(C(=O)N[C@H]2C3CC4CC2C[C@](OC(N)=O)(C4)C3)cnn1/C=C/C(C)(C)C(=O)NC(N)=O` [Compound I-18] and `CNC(=O)C(C)(C)/C=C/n1ncc(C(=O)N[C@H]2C3CC4CC2C[C@](OC(N)=O)(C4)C3)c1OCC(C)C` [Compound I-61] are within 0.2 log units of each other in “log k′” value: 0.866 for the first, 0.841 for the second.

`CCC(=O)N[C@]12CC3CC(C1)[C@@H](NC(=O)c1cnn(/C=C/C(C)(C)C(N)=O)c1OCC(C)C)C(C3)C2` [Compound I-20] and `CCC(=O)N[C@]12CC3CC(C1)[C@@H](NC(=O)c1cnn(/C=C/C(C)(C)NC(=O)OC)c1OCC(C)C)C(C3)C2` [Compound I-21] are within 0.2 log units of each other in “log k′” value: 0.845 for the first, 0.909 for the second.

`CC(C)COc1c(C(=O)N[C@H]2C3CC4CC2C[C@](OC(N)=O)(C4)C3)cnn1/C=C/C(C)(C)N1CCOC1=O` [Compound I-22] and `CONC(=O)C(C)(C)/C=C/n1ncc(C(=O)N[C@H]2C3CC4CC2C[C@](OC(N)=O)(C4)C3)c1OCC(C)C` [Compound I-65] are within 0.2 log units of each other in “log k′” value: 0.879 for the first, 0.838 for the second.

`COC(=O)NC(C)(C)/C=C/n1ncc(C(=O)N[C@H]2C3CC4CC2C[C@](CO)(C4)C3)c1OC(C)C` [Compound I-23] and `CC(=O)NC(C)(C)/C=C/n1ncc(C(=O)N[C@H]2C3CC4CC2C[C@](CO)(C4)C3)c1OC(C)C` [Compound I-31] are within 0.2 log units of each other in “log k′” value: 0.864 for the first, 0.819 for the second.

`CC(C)COc1c(C(=O)N[C@H]2C3CC4CC2C[C@](O)(C4)C3)cnn1/C=C/C(C)(C)NC(=O)C(C)C` [Compound I-25] and `CC(C)COc1c(C(=O)N[C@H]2C3CC4CC2C[C@](O)(C4)C3)cnn1/C=C/C(C)(C)NC(=O)CC(C)C` [Compound I-26] are within 0.2 log units of each other in “log k′” value: 0.87 for the first, 0.895 for the second.

`CC(C)COc1c(C(=O)N[C@H]2C3CC4CC2C[C@](OC(N)=O)(C4)C3)cnn1/C=C/C(C)(C)NC(=O)C(C)C` [Compound I-27] and `CC(C)COc1c(C(=O)N[C@H]2C3CC4CC2C[C@](OC(N)=O)(C4)C3)cnn1/C=C/C(C)(C)NC(=O)CC(C)C` [Compound I-28] are within 0.2 log units of each other in “log k′” value: 0.903 for the first, 0.927 for the second.

`COC(=O)NC(C)(C)/C=C/n1ncc(C(=O)N[C@H]2C3CCCC2C[C@@H](C#N)C3)c1OCC(C)C` [Compound I-33] and `COC(=O)NC(C)(C)/C=C/n1ncc(C(=O)N[C@H]2C3CCCC2C[C@@H](COC(N)=O)C3)c1OCC(C)C` [Compound I-46] are within 0.2 log units of each other in “log k′” value: 0.955 for the first, 0.913 for the second.

`CCCC(=O)NC(C)(C)/C=C/n1ncc(C(=O)N[C@H]2C3CC4CC2C[C@](O)(C4)C3)c1OCC(C)C` [Compound I-34] and `CC(=O)NCC(C)(C)/C=C/n1ncc(C(=O)N[C@H]2C3CC4CC2C[C@](O)(C4)C3)c1OCC(C)C` [Compound I-64] are within 0.2 log units of each other in “log k′” value: 0.877 for the first, 0.814 for the second.

`CC(C)COc1c(C(=O)N[C@H]2C3CC4CC2C[C@](O)(C4)C3)cnn1/C=C/C(C)(C)NC(=O)C1CCCC1` [Compound I-35] and `CC(C)COc1c(C(=O)N[C@H]2C3CC4CC2C[C@](O)(C4)C3)cnn1/C=C/C(C)(C)NC(=O)C1CCOCC1` [Compound I-79] are within 0.2 log units of each other in “log k′” value: 0.921 for the first, 0.818 for the second.

`CC(=O)NC(C)(C)/C=C/n1ncc(C(=O)N[C@H]2C3CCCC2C[C@@H](COC(N)=O)C3)c1OCC(C)C` [Compound I-45] and `CCC(=O)NC(C)(C)/C=C/n1ncc(C(=O)N[C@H]2C3CCCC2C[C@@H](COC(N)=O)C3)c1OCC(C)C` [Compound I-70] are within 0.2 log units of each other in “log k′” value: 0.865 for the first, 0.882 for the second.

`CC(C)COc1c(C(=O)N[C@H]2C3CC4CC2C[C@](OC(N)=O)(C4)C3)cnn1/C=C/C(C)(C)NC(=O)C1CCCC1` [Compound I-49] and `CC(C)COc1c(C(=O)N[C@H]2C3CC4CC2C[C@](OC(N)=O)(C4)C3)cnn1/C=C/C(C)(C)NC(=O)C1CCOCC1` [Compound I-80] are within 0.2 log units of each other in “log k′” value: 0.945 for the first, 0.852 for the second.

`CC(C)COc1c(C(=O)N[C@H]2C3CC4CC2C[C@](OC(N)=O)(C4)C3)cnn1/C=C/C(C)(C)NC(=O)CCC1CCCC1` [Compound I-50] and `COCC(=O)NC(C)(C)/C=C/n1ncc(C(=O)N[C@H]2C3CC4CC2C[C@](OC(N)=O)(C4)C3)c1OCC(C)C` [Compound I-51] are within 0.2 log units of each other in “log k′” value: 0.989 for the first, 0.882 for the second.

`COC(=O)N[C@]12CC3CC(C1)[C@@H](NC(=O)c1cnn(/C=C/C(C)(C)NC(C)=O)c1OCC(C)C)C(C3)C2` [Compound I-54] and `CONC(=O)[C@]12CC3CC(C1)[C@@H](NC(=O)c1cnn(/C=C/C(C)(C)NC(C)=O)c1OCC(C)C)C(C3)C2` [Compound I-60] are within 0.2 log units of each other in “log k′” value: 0.886 for the first, 0.813 for the second.

`CC(=O)NC[C@]12CC3CC(C1)[C@@H](NC(=O)c1cnn(/C=C/C(C)(C)NC(C)=O)c1OCC(C)C)C(C3)C2` [Compound I-56] and `CNC(=O)OC[C@]12CC3CC(C1)[C@@H](NC(=O)c1cnn(/C=C/C(C)(C)NC(C)=O)c1OCC(C)C)C(C3)C2` [Compound I-66] are within 0.2 log units of each other in “log k′” value: 0.838 for the first, 0.886 for the second.

`CCONC(=O)[C@]12CC3CC(C1)[C@@H](NC(=O)c1cnn(/C=C/C(C)(C)NC(C)=O)c1OCC(C)C)C(C3)C2` [Compound I-59] and `CC(=O)NC(C)(C)/C=C/n1ncc(C(=O)N[C@H]2C3CC4CC2C[C@](C(=O)NC(N)=O)(C4)C3)c1OCC(C)C` [Compound I-67] are within 0.2 log units of each other in “log k′” value: 0.833 for the first, 0.82 for the second.

`CONC(=O)C(C)(C)/C=C/n1ncc(C(=O)N[C@H]2C3CC4CC2C[C@](O)(C4)C3)c1OCC(C)C` [Compound I-62] and `CCNC(=O)C(C)(C)/C=C/n1ncc(C(=O)N[C@H]2C3CC4CC2C[C@](OC(N)=O)(C4)C3)c1OCC(C)C` [Compound I-71] are within 0.2 log units of each other in “log k′” value: 0.794 for the first, 0.868 for the second.

`CC(=O)NCC(C)(C)/C=C/n1ncc(C(=O)N[C@H]2C3CC4CC2C[C@](OC(N)=O)(C4)C3)c1OCC(C)C` [Compound I-68] and `CC(C)COc1c(C(=O)N[C@H]2C3CC4CC2C[C@](COC(N)=O)(C4)C3)cnn1/C=C/C(C)(C)CO` [Compound I-74] are within 0.2 log units of each other in “log k′” value: 0.85 for the first, 0.896 for the second.

`CCC(=O)NC(C)(C)/C=C/n1ncc(C(=O)N[C@H]2C3CCCC2C[C@@H](CO)C3)c1OCC(C)C` [Compound I-69] and `CC(C)COc1c(C(=O)N[C@H]2C3CC4CC2C[C@](O)(C4)C3)cnn1/C=C/C(C)(C)NC(=O)N1CCOCC1` [Compound I-81] are within 0.2 log units of each other in “log k′” value: 0.866 for the first, 0.813 for the second.

`CC(C)COc1c(C(=O)N[C@H]2C3CC4CC2C[C@](OC(N)=O)(C4)C3)cnn1/C=C/C(C)(C)NC(=O)COc1ccccc1` [Compound I-75] and `CC(C)COc1c(C(=O)N[C@H]2C3CC4CC2C[C@](OC(N)=O)(C4)C3)cnn1/C=C/C(C)(C)NC(=O)CCc1ccccc1` [Compound I-76] are within 0.2 log units of each other in “log k′” value: 0.95 for the first, 0.946 for the second.

`CC(C)COc1c(C(=O)NC2C3CC4(O)CC2CC(O)(C3)C4)cnn1/C=C/C(C)(C)C(N)=O` (stereo not shown) [Compound I-82] and `CC(C)COc1c(C(=O)N[C@H]2C3CC4CC2C[C@](COC(N)=O)(C4)C3)cnn1/C=C/C(C)(C)C(=O)NC(N)=O` [Compound I-83] are within 0.2 log units of each other in “log k′” value: 0.682 for the first, 0.87 for the second.
